The source of these data is patent US5061722A, “Cis, endo-2-azabicyclo-[3.3.0]-octane-3-carboxylic acids, a process for their preparation, agents containing these compounds and their use” (Hoechst AG, priority 1981, dated 1991).

Test [1] concerns pressor reaction induced by 310 ng of angiotensin I. In words: Intraduodenal administration to anesthetized rats, ED50. The test is classed as in vivo, rat. As to the method:
(§1) 1. Intravenous administration to anesthetized rats, 50% inhibition of the pressor reaction induced by 310 ng of angiotensin I, 30 minutes after administration of the dose . . . ED50
2. Intraduodenal administration to anesthetized rats

The test system is the same in test [2]. In words: Intravenous administration to anesthetized rats, 50% inhibition of the pressor reaction induced by 310 ng of angiotensin I. The class given is in vivo. As to conditions: Rattus norvegicus, 0.5 h, 30 minutes after administration of the dose. As for the experimental part: as §1
Test [3] deals with pressor reaction triggered off by intravenous administration of angiotensin I. Kind of test: Oral administration to conscious rats, inhibition of the pressor reaction triggered off by intravenous angiotensin I. The test is classed as in vivo, rat. The conditions noted are these: 1 mg/kg.
[4] abbreviates: Rattus norvegicus, read-out: ED50.

On to `C[C@H](N[C@@H](CC(=O)c1ccccc1)C(=O)OCc1ccccc1)C(=O)N1C(C(=O)O)CC2CCCC21` (relative stereo) [X=C6H5, Y=--, Z=O, R1=CH3, R2=C7H7, N-(1-S-Carbobenzyloxy-3-oxo-3-phenyl-propyl)-S-alanyl-2-cis,endo-azabicyclo-[3.3.0]-octane-3-carboxylic acid], for which, in test [1], the ED50 was found to be 0.25 mg/kg.

As for `CCOC(=O)[C@H](CC(=O)c1ccccc1)N[C@@H](C)C(=O)N1[C@H](C(=O)O)C[C@@H]2CCC[C@@H]21` [X=C6H5, Y=--, Z=O, R1=CH3, R2=C2H5, N-(1-S-carbethoxy-3-oxo-3-phenyl-propyl)-S-alanyl-cis,endo-2-azabicyclo-[3.3.0]-octane-3-S-carboxylic acid], the ED50 in test [1] (setting [4]) was determined as 0.28 mg/kg.

`CCOC(=O)[C@H](CCc1ccccc1)N[C@@H](C)C(=O)N1[C@H](C(=O)O)C[C@@H]2CCC[C@@H]21` [X=C6H5, Y=H, Z=H, R1=CH3, R2=C2H5, N-(1-S-Carbethoxy-3-phenyl-propyl)-S-alanyl-cis,endo-2-azabicyclo-[3.3.0]-octane-3-S-carboxylic acid] came in with an ED50 in test [2] of 0.0083 mg/kg. Further, the ED50 in test [1] (setting [4]) was 0.05 mg/kg. In test [3], the “duration of the 90% inhibition of the pressor reaction” value is given as “over 6 hours” and the “inhibition of the pressor reaction triggered off by intravenous administration of angiotensin I” value was found to be 90%.

In the case of `C[C@H](N[C@@H](CCc1ccccc1)C(=O)O)C(=O)N1[C@H](C(=O)O)C[C@@H]2CCC[C@@H]21` [X=C6H5, Y=H, Z=H, R1=CH3, R2=H, N-(1-S-Carboxy-3-phenyl-propyl)-S-alanyl-cis,endo-2-azabicyclo-[3.3.0]-octane-3-S-carboxylic acid], the ED50 in test [2] was 0.0027 mg/kg; in test [1] (setting [4]), 0.6 mg/kg.

As a reminder, the ED50 is the dose that gives a 50% effect, or the effect in half of the subjects.
